Activity calls are given as the source filed them. No cut-off for these calls is given here.
How the values were obtained:
[1] = Reversal of multi-drug resistance in human KBV cells assessed as paclitaxel induced cytotoxicity by measuring cell survival at 10 uM measured after 72 hrs by MTT assay relative to control; assay type: functional
[2] = Cytotoxicity against human KBV cells assessed as paclitaxel induced cytotoxicity by measuring cell survival at 10 uM measured after 72 hrs by MTT assay relative to control; assay type: functional
[3] = Sensitization of paclitaxel-induced cytotoxicity against human KBV cells assessed as fold change in paclitaxel IC50 at 2.5 uM incubated for 72 hrs by MTT assay relative to paclitaxel alone; assay type: functional
[4] = Sensitization of paclitaxel-induced cytotoxicity against human KBV cells assessed as fold change in paclitaxel IC50 at 5 uM incubated for 72 hrs by MTT assay relative to paclitaxel alone; assay type: functional
[5] = Sensitization of paclitaxel-induced cytotoxicity against human KBV cells assessed as fold change in paclitaxel IC50 at 10 uM incubated for 72 hrs by MTT assay relative to paclitaxel alone; assay type: functional
[6] = Sensitization of vincristine -induced cytotoxicity against human KBV cells assessed as fold change in vincristine IC50 at 2.5 uM incubated for 72 hrs by MTT assay relative to vincristine alone; assay type: functional
[7] = Sensitization of vincristine -induced cytotoxicity against human KBV cells assessed as fold change in vincristine IC50 at 5 uM incubated for 72 hrs by MTT assay relative to vincristine alone; assay type: functional
[8] = Sensitization of vincristine -induced cytotoxicity against human KBV cells assessed as fold change in vincristine IC50 at 10 uM incubated for 72 hrs by MTT assay relative to vincristine alone; assay type: functional
[9] = Cytotoxicity against human KBV cells incubated for 72 hrs by MTT assay; assay type: functional, cell-based
[10] = Aqueous solubility of the compound in deionized water measured after 24 hrs by UV-vis spectrophotometric analysis; assay type: physicochemical; conditions: buffer
[11] = test system: KBV; assay: Anti-tumor activity against human KBV cells xenografted in male BALB/c nude mouse assessed as reduction in tumor volume at 30 mg/kg administered every days for 18 days; assay type: functional, organism-based; conditions: time 18.0 day

Compound: CC1(C)CC[C@]2(C(=O)OCC(=O)NCC3CCOCC3)CC[C@]3(C)C(=CC[C@@H]4[C@@]5(C)Cc6nccnc6[C@@](C)(CO)[C@@H]5CC[C@]43C)[C@@H]2C1
- Activity [1]: 30.34%
- Activity [2]: 78.91%

Compound: CC1(C)CC[C@]2(C(=O)OCC(=O)NCc3ccccn3)CC[C@]3(C)C(=CC[C@@H]4[C@@]5(C)Cc6nccnc6[C@@](C)(CO)[C@@H]5CC[C@]43C)[C@@H]2C1
- Activity [1]: 33.22%
- Activity [2]: 82.98%

Compound: CC1(C)CC[C@]2(C(=O)NCCCC(=O)OCCOCCO)CC[C@]3(C)C(=CC[C@@H]4[C@@]5(C)Cc6nccnc6[C@@](C)(CO)[C@@H]5CC[C@]43C)[C@@H]2C1
- Activity [1]: 70.13%
- Activity [2]: 91.43%

Compound: O[C@@H](COc1cccc2ncccc12)CN1CCN([C@@H]2c3ccccc3[C@@H]3[C@H](c4ccccc42)C3(F)F)CC1 [ZOSUQUIDAR]
- fold change (FC) [3]: 45.38
- fold change (FC) [4]: 133.98
- fold change (FC) [5]: 449.19
- fold change (FC) [6]: 9.01
- fold change (FC) [7]: 33.85
- fold change (FC) [8]: 721.86

Compound: CC1(C)CC[C@]2(C(=O)OCC(=O)NCc3cnccn3)CC[C@]3(C)C(=CC[C@@H]4[C@@]5(C)Cc6nccnc6[C@@](C)(CO)[C@@H]5CC[C@]43C)[C@@H]2C1
- Activity [1]: 40.44%
- Activity [2]: 97.94%

Compound: COc1cc2c(cc1OC)CN(CCc1ccc(NC(=O)c3cc(OC)c(OC)cc3NC(=O)c3cnc4ccccc4c3)cc1)CC2
- fold change (FC) [3]: 391.47
- fold change (FC) [4]: 824.4
- fold change (FC) [5]: 1523.35
- fold change (FC) [6]: 16.78
- fold change (FC) [7]: 30.99
- fold change (FC) [8]: 744.78

Compound: CC1(C)CC[C@]2(C(=O)OCC(=O)OCc3cnccn3)CC[C@]3(C)C(=CC[C@@H]4[C@@]5(C)Cc6nccnc6[C@@](C)(CO)[C@@H]5CC[C@]43C)[C@@H]2C1
- Activity [1]: 53.78%
- Activity [2]: 121.45%

Compound: COC(=O)C[C@H](NC(=O)COC(=O)[C@]12CCC(C)(C)C[C@H]1C1=CC[C@@H]3[C@@]4(C)Cc5nccnc5[C@@](C)(CO)[C@@H]4CC[C@@]3(C)[C@]1(C)CC2)C(=O)OC
- Activity [1]: 35.97%
- Activity [2]: 79.2%

Compound: CC1(C)CC[C@]2(C(=O)OCC(=O)OCc3ccncc3)CC[C@]3(C)C(=CC[C@@H]4[C@@]5(C)Cc6nccnc6[C@@](C)(CO)[C@@H]5CC[C@]43C)[C@@H]2C1
- Activity [1]: 46.31%
- Activity [2]: 109.15%

Compound: CC1(C)CC[C@]2(C(=O)NCCCC(=O)OCCOCCOCCOCCO)CC[C@]3(C)C(=CC[C@@H]4[C@@]5(C)Cc6nccnc6[C@@](C)(CO)[C@@H]5CC[C@]43C)[C@@H]2C1
- Activity [1]: 28.96%
- Activity [2]: 93.67%

Compound: COC(=O)[C@H](CC(C)C)NC(=O)COC(=O)[C@]12CCC(C)(C)C[C@H]1C1=CC[C@@H]3[C@@]4(C)Cc5nccnc5[C@@](C)(CO)[C@@H]4CC[C@@]3(C)[C@]1(C)CC2
- Activity [1]: 38.41%
- Activity [2]: 85.1%

Compound: CC1(C)CC[C@]2(C(=O)OCC(=O)OCc3nccs3)CC[C@]3(C)C(=CC[C@@H]4[C@@]5(C)Cc6nccnc6[C@@](C)(CO)[C@@H]5CC[C@]43C)[C@@H]2C1
- Activity [1]: 43.84%
- Activity [2]: 105.92%

Compound: CC1(C)CC[C@]2(C(=O)NCC(=O)OCCOCCOCCO)CC[C@]3(C)C(=CC[C@@H]4[C@@]5(C)Cc6nccnc6[C@@](C)(CO)[C@@H]5CC[C@]43C)[C@@H]2C1
- Activity [1]: 67.88%
- Activity [2]: 86.82%

Compound: COC(=O)[C@H](CCSC)NC(=O)COC(=O)[C@]12CCC(C)(C)C[C@H]1C1=CC[C@@H]3[C@@]4(C)Cc5nccnc5[C@@](C)(CO)[C@@H]4CC[C@@]3(C)[C@]1(C)CC2
- Activity [1]: 37.17%
- Activity [2]: 79.95%

Compound: CC(C)[C@H](N)C(=O)NCC(=O)NCCNC(=O)[C@]12CCC(C)(C)C[C@H]1C1=CC[C@@H]3[C@@]4(C)Cc5nccnc5[C@@](C)(CO)[C@@H]4CC[C@@]3(C)[C@]1(C)CC2
- Activity [1]: 27.74%
- Activity [2]: 97.4%

Compound: CC1(C)CC[C@]2(C(=O)NCCCC(=O)OCCOCCOCCOCCOCCO)CC[C@]3(C)C(=CC[C@@H]4[C@@]5(C)Cc6nccnc6[C@@](C)(CO)[C@@H]5CC[C@]43C)[C@@H]2C1
- Activity [1]: 27.02%
- Activity [2]: 94.86%

Compound: CC1(C)CC[C@]2(C(=O)NCC(=O)OCCOCCOCCOCCO)CC[C@]3(C)C(=CC[C@@H]4[C@@]5(C)Cc6nccnc6[C@@](C)(CO)[C@@H]5CC[C@]43C)[C@@H]2C1
- Activity [1]: 83.46%
- Activity [2]: 90.96%

Compound: CC1(C)CC[C@]2(C(=O)OCC(=O)NCc3cccs3)CC[C@]3(C)C(=CC[C@@H]4[C@@]5(C)Cc6nccnc6[C@@](C)(CO)[C@@H]5CC[C@]43C)[C@@H]2C1
- Activity [1]: 25.86%
- Activity [2]: 54.97%

Compound: CC[C@]1(O)C[C@H]2CN(CCc3c([nH]c4ccccc34)[C@@](C(=O)OC)(c3cc4c(cc3OC)N(C=O)[C@H]3[C@@](O)(C(=O)OC)[C@H](OC(C)=O)[C@]5(CC)C=CCN6CC[C@]43[C@@H]65)C2)C1 [VINCRISTINE]
- IC50 [9]: 469 nM

Compound: CC1(C)CC[C@]2(C(=O)OCc3ccccc3)CC[C@]3(C)C(=CC[C@@H]4[C@@]5(C)Cc6nccnc6[C@@](C)(CO)[C@@H]5CC[C@]43C)[C@@H]2C1
- Activity [1]: 18.17%
- solubility [10]: soluble

Compound: CC(C)C[C@H](N)C(=O)NCC(=O)NCCNC(=O)[C@]12CCC(C)(C)C[C@H]1C1=CC[C@@H]3[C@@]4(C)Cc5nccnc5[C@@](C)(CO)[C@@H]4CC[C@@]3(C)[C@]1(C)CC2
- Activity [1]: 96.68%
- Activity [2]: 98.91%

Compound: CC1(C)CC[C@]2(C(=O)OCC(=O)NCc3ncccn3)CC[C@]3(C)C(=CC[C@@H]4[C@@]5(C)Cc6nccnc6[C@@](C)(CO)[C@@H]5CC[C@]43C)[C@@H]2C1
- Activity [1]: 39.38%
- Activity [2]: 90.35%

Compound: CC(C)[C@H](N)C(=O)N[C@H](C(=O)NCCNC(=O)[C@]12CCC(C)(C)C[C@H]1C1=CC[C@@H]3[C@@]4(C)Cc5nccnc5[C@@](C)(CO)[C@@H]4CC[C@@]3(C)[C@]1(C)CC2)C(C)C
- Activity [1]: 89.43%
- Activity [2]: 87.47%

Compound: COC(=O)[C@H](Cc1ccccc1)NC(=O)COC(=O)[C@]12CCC(C)(C)C[C@H]1C1=CC[C@@H]3[C@@]4(C)Cc5nccnc5[C@@](C)(CO)[C@@H]4CC[C@@]3(C)[C@]1(C)CC2
- Activity [1]: 38.69%
- Activity [2]: 90.77%

Compound: CC(=O)O[C@H]1C(=O)[C@@]2(C)[C@H]([C@H](OC(=O)c3ccccc3)[C@]3(O)C[C@H](OC(=O)[C@H](O)[C@@H](NC(=O)c4ccccc4)c4ccccc4)C(C)=C1C3(C)C)[C@]1(OC(C)=O)CO[C@@H]1C[C@@H]2O [PACLITAXEL]
- Activity [2]: 106%
- IC50 [9]: 701 nM
- Activity [11]: inactive

Compound: CC1(C)CC[C@]2(C(=O)NCCNC(=O)CNC(=O)CN)CC[C@]3(C)C(=CC[C@@H]4[C@@]5(C)Cc6nccnc6[C@@](C)(CO)[C@@H]5CC[C@]43C)[C@@H]2C1
- Activity [1]: 87.67%
- Activity [2]: 91.41%

Compound: CC1(C)CC[C@]2(C(=O)NCC(=O)OCCOCCOCCOCCOCCO)CC[C@]3(C)C(=CC[C@@H]4[C@@]5(C)Cc6nccnc6[C@@](C)(CO)[C@@H]5CC[C@]43C)[C@@H]2C1
- Activity [1]: 78.98%
- Activity [2]: 77.18%

Compound: CC1(C)CC[C@]2(C(=O)NCC(=O)OCCOCCO)CC[C@]3(C)C(=CC[C@@H]4[C@@]5(C)Cc6nccnc6[C@@](C)(CO)[C@@H]5CC[C@]43C)[C@@H]2C1
- Activity [1]: 84.84%
- Activity [2]: 94.99%

Compound: C[C@H](N)C(=O)N[C@@H](C)C(=O)NCCNC(=O)[C@]12CCC(C)(C)C[C@H]1C1=CC[C@@H]3[C@@]4(C)Cc5nccnc5[C@@](C)(CO)[C@@H]4CC[C@@]3(C)[C@]1(C)CC2
- Activity [1]: 28.53%
- Activity [2]: 92.74%

Compound: CC1(C)CC[C@]2(C(=O)NCCCC(=O)OCCOCCOCCO)CC[C@]3(C)C(=CC[C@@H]4[C@@]5(C)Cc6nccnc6[C@@](C)(CO)[C@@H]5CC[C@]43C)[C@@H]2C1
- Activity [1]: 63.88%
- Activity [2]: 96.02%

Compound: CC1(C)CC[C@]2(C(=O)OCC(=O)OCC3CCO3)CC[C@]3(C)C(=CC[C@@H]4[C@@]5(C)Cc6nccnc6[C@@](C)(CO)[C@@H]5CC[C@]43C)[C@@H]2C1 (stereo partly specified)
- Activity [1]: 48.06%
- Activity [2]: 106.82%

Compound: CC1(C)CC[C@]2(C(=O)OCC(=O)OCc3ncco3)CC[C@]3(C)C(=CC[C@@H]4[C@@]5(C)Cc6nccnc6[C@@](C)(CO)[C@@H]5CC[C@]43C)[C@@H]2C1
- Activity [1]: 26.03%
- Activity [2]: 62.38%

Compound: CC1(C)CC[C@]2(C(=O)NCC(=O)OCCOCCOCCOCCOCCOCCOCCOCCOCCO)CC[C@]3(C)C(=CC[C@@H]4[C@@]5(C)Cc6nccnc6[C@@](C)(CO)[C@@H]5CC[C@]43C)[C@@H]2C1
- Activity [1]: 74.02%
- Activity [2]: 79.04%

Compound: COC(=O)CC[C@H](NC(=O)COC(=O)[C@]12CCC(C)(C)C[C@H]1C1=CC[C@@H]3[C@@]4(C)Cc5nccnc5[C@@](C)(CO)[C@@H]4CC[C@@]3(C)[C@]1(C)CC2)C(=O)OC
- Activity [1]: 40.07%
- Activity [2]: 92.53%
